In patent US10561650B2, “Method for treating a protozoal infection” (priority 2013, dated 2020):

System: L. donovani promastigotes
Experiment: Cultured L. donovani promastigotes exposed to drugs alone or in two-drug combinations
Type: cell-based
Settings: typical serum concentrations (e.g. 5 ug/ml); DMEM culture medium; after 144 hours in culture

SMILES	reduction of promastigotes compared to control
CCC(C)n1ncn(-c2ccc(N3CCN(c4ccc(OCC5COC(Cn6cncn6)(c6ccc(Cl)cc6Cl)O5)cc4)CC3)cc2)c1=O (centres unmarked) [itraconazole]	~50%
Cc1ncc([N+](=O)[O-])n1CCO [metronidazole]	~50%
